The nature of this series: Human HepG2 cell viability assay in 384 well format. The class given is toxicity, cell-based. Particulars: HepG2 cells, read-out: Inhibition. Details: dose 125 nL, time 70.5 hour; concentration not given beside the values.
For the molecule `Cc1ccc(CNC2(Cc3cc(-c4cccc(O)c4)on3)COC2)o1`, the cytotoxicity at 70.5 h is -8.24%.
For `c1ccc(Cc2noc(CN3CCOC(Cn4cncn4)C3)n2)cc1` (centres undefined) the value was 12%.
For `CNS(=O)(=O)c1cccc(CNC(=O)NCC2CCOC2)c1` (centres undefined) the value was -8.46%; for `Cc1ccnc(C2(C)CCCN2S(=O)(=O)c2ccccc2)n1` (centres undefined), 16.3%; for `CC(Nc1ncnc2c1CCNC2)c1ccc(C(C)(C)C)cc1` (centres undefined), 2.81%.
As for `Cc1nc(CSCCC(=O)NCCNC(=O)OC(C)(C)C)cs1`, the cytotoxicity at 70.5 h is 3.27%.
Take `CS(=O)(=O)NC1CCCN(C(=O)Nc2cccnc2N2CCCC2)C1` (centres undefined): the cytotoxicity at 70.5 h stood at 0.921%.
For `N#Cc1cccc(N2CCC(CO)(CCOc3ccccc3)CC2)n1` the value was -4.29%; for `CN(CCN1CCCCCC1)C(=O)c1cc(CN2CCCC(O)C2)on1` (centres undefined), -10.1%.
For `CCC[C@H]1CN(S(C)(=O)=O)C[C@@H]1NC(=O)Cc1ccc(F)cc1C` the value was -1.4%; for `Cc1nnc(-c2cccc(C#N)c2)n1C1CCN(C(C)C)C1=O` (centres undefined), -11.3%; for `Cc1cn2c(n1)CCC(NC(=O)c1[nH]ncc1Br)C2` (centres undefined), -9.45%.
For `CC(C)CN1CC(C(=O)N(C)CCc2cn[nH]c2)CC1=O` (centres undefined) the value was -6.49%; for `CCc1csc(C2CCCN(C(=O)c3ccc4[nH]nnc4c3)C2)n1` (centres undefined), -0.976%; for `O=C(COc1ccccc1O)N1CCOC(C(F)(F)F)C1` (centres undefined), 17.8%.
For the molecule `COCCn1cc(CC(=O)Nc2c(C)nn(C)c2C)c2ccccc21`, the cytotoxicity at 70.5 h was -5.58%.
The figure for `CC(O)(CNc1ccc(Cl)c(C#N)n1)c1ccccc1` (centres undefined) is 13.8%.
The figure for `Cc1ccc(F)cc1S(=O)(=O)Nc1cnc(N2CCCC2)nc1` is -9.37%; for `CC(NCCCC#N)c1ccc(-c2cccnc2)cc1` (centres undefined) it is -2.12%.
With `Cc1cc(NCCc2c(C)n[nH]c2C)nc(-c2cccnc2)n1`, the cytotoxicity at 70.5 h amounted to 20.8%.
The figure for `COc1cc(CNCCn2cc(C)cn2)c2c(c1)CC(C)O2` (centres undefined) is -8.44%; for `COc1ccc(CN2C[C@@H](F)[C@@H](OCc3nc4cnccc4[nH]3)C2)cn1` it is -4.62%; for `Cc1csc2c(=O)n(CCN3CCNCC3)cnc12` it is 11.9%.
The figure for `O=C(Cn1c(=O)n(Cc2ccco2)c2ncccc21)NC1CC1` is -4.4%; for `Cc1cnc2c(S(=O)(=O)NCC3CCOC3)cccc2c1` (centres undefined) it is -10.2%.
For `Cc1ccc(OC2CCN(S(=O)(=O)N(C)C)CC2)nc1` the value was -12.1%.
For the molecule `Cc1cc(C)c(CNC(=O)NC2COc3ccccc3C2)c(=O)[nH]1` (centres undefined), the cytotoxicity at 70.5 h is -8.39%.
For the molecule `Cc1nc(NC(=O)C(C)N2CCN(c3ncccn3)CC2)sc1C` (centres undefined), the cytotoxicity at 70.5 h was -8.18%.
For `N#Cc1cc(C#N)c(SCCC(=O)Nc2ccc(F)cc2)nc1N` the value was -12.6%; for `O=C(c1ccc[nH]1)N1CCCn2c(CNC3CCC3)nnc2C1`, -4.17%.
The figure for `CCOc1cc(C(=O)N2CCCC(c3cc(C(N)=O)[nH]n3)C2)ccn1` (centres undefined) is -7.42%; for `CNS(=O)(=O)c1ccccc1N1CCN(C(=O)C(C)C)CC1` it is -5.83%; for `Cc1cc(CN2CC[C@H]3C[C@H](C(=O)Nc4cccnc4C)O[C@@H]3C2)no1` it is 12.4%.
As to `Cc1noc(C)c1CN1CC[C@H]2C[C@H](c3nccs3)O[C@@H]2C1`, the cytotoxicity at 70.5 h was -9.22%.
The figure for `CNC(=O)[C@@H]1C[C@H]2CN(Cc3csc(C)n3)C[C@H]2N1C(C)C` is -4.84%.
For `CCn1c(C2CCCN(Cc3cc(F)ccc3OC)C2)nn(C)c1=O` (centres undefined) the value was -9.41%; for `Cn1nc(N2CCCC(C(=O)Nc3nc4ccccc4s3)C2)ccc1=O` (centres undefined), 1.88%; for `Cc1cc(C)c(CNc2cnc3ccccc3n2)c(=O)[nH]1`, 59.4%.
The figure for `Cc1nc(CN2C(=O)CCC23CCN(Cc2ccccn2)CC3)cs1` is -6.85%.
On to `CCN(C(=O)CN1CCCC1c1c(C)nn(C)c1OC)C1CC1` (centres undefined), for which the cytotoxicity at 70.5 h is -6.09%.
For `c1ccc2[nH]c(C3CCN(Cc4noc(C5CC5)n4)CC3)cc2c1` the value was -3.83%; for `CCc1ncc2c(n1)CN(c1cc(N3CCN(C)CC3)nc(N)n1)C2`, 25%; for `CC(C)NC(=O)NC[C@H]1OC[C@@H](NCc2ccccc2F)[C@@H]1O`, -4.73%.
The figure for `Cn1cccc1C(=O)N1CCCC2(CCCN2S(C)(=O)=O)C1` (centres undefined) is -8.52%; for `NC(=O)COc1ccc(C(=O)NCCc2ccco2)cc1` it is -5.22%.
For `COc1ccc([C@@H]2CN(Cc3cccnc3N)C[C@H]2N(C)C)cc1` the value was -2.88%.
`Cc1ccc(-c2noc(C3CCN3C(=O)c3cc[nH]n3)n2)s1` (centres undefined): the cytotoxicity at 70.5 h was -14.3%.
`CCC(CO)N(Cc1ccccn1)C(=O)c1ncccc1C` (centres undefined): the cytotoxicity at 70.5 h came to 15.2%.
The figure for `CC(C)(C)SCCNC(=O)[C@@]12CNC[C@@H]1CN(S(C)(=O)=O)C2` is -2.8%; for `O=C(CC1Cn2ncnc2NC1=O)Nc1cccc(C(F)(F)F)c1` (centres undefined) it is -11.2%.
On to `Cn1c(Cn2ccnc2)nnc1C1CCN(C(=O)C2(C)CC2)CC1`, for which the cytotoxicity at 70.5 h was -9.41%.
The figure for `O=C([C@H]1CN(Cc2ccc(F)cc2)C[C@H]2OCC[C@@H]12)N1CCCO1` is -7.77%; for `Cc1cc(C)n(CC2CN(CC(=O)NC3CCOCC3)CCO2)n1` (centres undefined) it is 15.9%.
The figure for `Cc1ccc(CNC(=O)Cn2c(=O)c3cccnc3n2C)cc1F` is -12.5%.
The figure for `CNC(=O)[C@@H]1[C@@H](c2ccccc2)CN2CCN(Cc3ccccn3)C[C@H]12` is -7.27%; for `CCOc1ccc(Cl)cc1C1CCCN1` (centres undefined) it is -16.4%.
In the case of `COCc1noc(-c2nn(-c3ccc(F)c(F)c3)c3c2CCC3)n1`, the cytotoxicity at 70.5 h worked out at 26%.
As for `COC(=O)COc1nc(CC(C)C)c2c(c1C#N)CCCC2`, the cytotoxicity at 70.5 h is 7.01%.
For `O=C1CCCCN1CCc1nc(C2(c3ccc(F)cc3)CCOC2)no1` (centres undefined) the value was 12.7%.
The figure for `CC(C)N(C)Cc1n[nH]c2c1CCN(C(=O)c1cc[nH]n1)C2` is 21.5%.
As for `CN(C)C(=O)c1ccc(C2CCCN2C(=O)CCC2=NNC(=O)CC2)s1` (centres undefined), the cytotoxicity at 70.5 h was -14.5%.
Take `O=C(C[C@@H]1COC[C@H]2CN(Cc3ccc(F)cc3)C[C@@H]12)N1CCCC1`: the cytotoxicity at 70.5 h was determined as 2.93%.
The figure for `O=C1NC2(CCN(CC(=O)N3CCOCC3)CC2)Nc2ccccc21` is -2.3%; for `O=C(NCCCN1CCCCCC1=O)c1n[nH]c(=O)c2ccccc12` it is -2.46%; for `Cc1cc(C(=O)N2CCc3nnc(N)cc3C2)c(C)n1C1CC1` it is -12.1%.
The figure for `CCCN(Cc1nccn1C)C(=O)C(CC)Nc1cccc(OC)c1` (centres undefined) is -3.17%; for `O=C(Cc1ccc2c(c1)CCC2)NCCNc1cnccn1` it is -16%; for `COc1cccc(CN(C)C(=O)CN2CC(n3nc(C)cc3C)C2)c1` it is -1.82%.
`Cc1cc(F)ccc1N1CCC(N2C[C@@H](CN(C)C)[C@@H](CO)C2)CC1`: the cytotoxicity at 70.5 h was -6.24%.
